In PMC6469940 (Science Advances, 2019):

Molecular target: T1, hM4D(Gi) (human M4 muscarinic receptor-based DREADD) (Homo sapiens, UniProt P08173, A203G/Y113C)
T1 construct: gene CHRM4; hM4D(Gi) plasmid (Addgene 45548)
T1 sequence (P08173 1-479 Y113C/A203G): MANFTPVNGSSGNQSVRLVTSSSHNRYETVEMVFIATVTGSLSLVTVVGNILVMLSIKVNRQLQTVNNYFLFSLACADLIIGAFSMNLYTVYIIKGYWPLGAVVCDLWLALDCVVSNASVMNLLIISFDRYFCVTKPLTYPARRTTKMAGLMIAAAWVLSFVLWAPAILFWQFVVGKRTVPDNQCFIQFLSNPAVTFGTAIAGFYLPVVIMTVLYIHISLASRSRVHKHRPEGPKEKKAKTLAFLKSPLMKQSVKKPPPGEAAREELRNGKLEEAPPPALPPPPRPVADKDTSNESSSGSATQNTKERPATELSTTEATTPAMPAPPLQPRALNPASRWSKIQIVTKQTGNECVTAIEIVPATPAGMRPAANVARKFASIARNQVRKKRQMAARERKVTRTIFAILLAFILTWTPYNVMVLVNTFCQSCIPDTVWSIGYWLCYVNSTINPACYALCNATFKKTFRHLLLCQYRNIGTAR
Test: whole-cell patch clamp of Kir3.[…] current potentiation in HEK cells transfected with hM4D(Gi)
Format: cell-based

SMILES	EC50
c1ccc2c(c1)N=C(N1CCNCC1)c1ccccc1N2 [C21, compound 21]	20 ± 4 nM
CN1CCN(C2=Nc3ccccc3Cc3ccccc32)CC1 [PLP, perlapine]	40 ± 10 nM
